These results are taken from patent US7943748B2, “Glucitol derivative, prodrug thereof and salt thereof, and therapeutic agent containing the same for diabetes” (Chugai Seiyaku Kabushiki Kaisha, priority 2004, dated 2011).

Structures are written as SMILES.

In series [1] the target is T1, human SGLT2 (Homo sapiens, UniProt P31639).
T1 construct: expressed in transfected cells; host or cells: CHO-K1
T1 sequence (P31639 1-672): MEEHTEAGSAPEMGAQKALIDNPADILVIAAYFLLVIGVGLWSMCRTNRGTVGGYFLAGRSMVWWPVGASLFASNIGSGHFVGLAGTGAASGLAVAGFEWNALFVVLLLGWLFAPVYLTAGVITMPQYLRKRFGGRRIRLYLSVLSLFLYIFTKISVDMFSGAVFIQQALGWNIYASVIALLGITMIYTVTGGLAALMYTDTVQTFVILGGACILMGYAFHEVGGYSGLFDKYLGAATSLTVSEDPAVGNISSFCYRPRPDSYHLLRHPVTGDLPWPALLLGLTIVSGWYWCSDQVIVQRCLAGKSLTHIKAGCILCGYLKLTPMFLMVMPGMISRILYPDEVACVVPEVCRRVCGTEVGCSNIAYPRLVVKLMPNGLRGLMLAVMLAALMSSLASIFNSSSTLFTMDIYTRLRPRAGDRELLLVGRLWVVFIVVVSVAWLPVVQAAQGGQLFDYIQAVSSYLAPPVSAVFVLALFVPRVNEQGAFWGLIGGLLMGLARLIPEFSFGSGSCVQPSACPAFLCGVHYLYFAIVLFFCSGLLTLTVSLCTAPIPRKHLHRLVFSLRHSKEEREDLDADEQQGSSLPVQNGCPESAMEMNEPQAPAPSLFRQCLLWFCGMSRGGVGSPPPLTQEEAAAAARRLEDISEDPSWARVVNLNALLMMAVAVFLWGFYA
Nature of the series: Inhibition of methyl-α-D-glucopyranoside intake in human SGLT2 stable expression CHO cells. To be noted: methyl-α-D-(U-14C)glucopyranoside intake, 37° C., 45 minutes. The format is cell-based. The protocol: Test for Confirming Action of Inhibiting Human Na^+-Glucose Co-Transporters (SGLT1 and SGLT2)
(2) Preparation of Human SGLT2 Expression Vector
PCR was performed by KOD+DNA polymerase by taking a human kidney-derived cDNA library (a product of Clontech) as a template with the use of a synthesized DNA primer to amplify human SGLT2 cDNA. […] From the proliferated E. coli, a plasmid was purified according to the usual way. By taking this plasmid as a template, PCR was performed by KOD+DNA polymerase with the use of a synthetic DNA primer into which restriction enzyme recognition sites had been introduced to amplify human SGLT2 cDNA (a fragment added with Xho I recognition site on the upstream side and a Hind III recognition site on the downstream side). This amplified fragment was subjected to Xho I and Hind III digestion to connect the digested fragments to their recognition sites of the expression vector pcDNA 3.1(−) with the use of the Rapid DNA Ligation kit. The connected expression vector was introduced into E. coli competent cells (DH5α) and proliferated in an ampicillin-containing LB medium to obtain a human SGLT2 expression vector according to the usual way.
(3) Preparation of Human SGLT1 Stable Expression Cell and Human SGLT2 Stable Expression Cell […]

The nature of series [2]: Test for determining blood half-life in rat. In kind it is in vivo. Particulars: iv; SD male rat, intravenously administered, dosage 10 mg/kg, plasma, LC-MS/MS, non-compartmental analysis, half-life in the final layer. The method, then: Test for Determining Blood Half-Life in Rat
A test compound was intravenously administered to a SD male rat (8-weeks old, Japan SLC) and the blood was collected 2 minutes, 5 minutes, 15 minutes, 30 minutes, 1 hour, 2 hours, 4 hours, 6 hours and 8 hours after administration, respectively. The obtained blood was centrifuged to obtain plasma. The plasma sample (0.01 mL) and water (0.4 mL) were added to a tube added with an internal standard substance of phenyloin (250 ng), and diethyl ether (2 mL) was added thereto and the obtained solution was stirred for five minutes, and then centrifuged for 10 minutes and an organic layer was recovered and subjected to nitrogen dryness, and a mobile phase was added to the obtained solid to dissolve it and the resulting solution was taken as a sample for determination.
The sample for determination was injected into LC-MS/MS and determined under the following conditions. • Column: ODS (2.0×150 mm) • Mobile Phase Acetonitrile/10 mM ammonium acetate=4/6 (v/v) • Flow Rate: 0.2 mL/min • Amount of Sample Injected: 10 μL • Mass Analysis: ESI (+)
The plasma concentration obtained by the LC-MS/MS method was subjected to non-compartmental analysis with the use of the WinNonlin standard made by Pharsight Corporation to calculate pharmacokinetic parameters.

The term IC50 denotes the concentration needed to halve the response being measured. For orientation: half-life means how long it takes for the measured level to halve. A low value points to rapid decline.

On to `Cc1ccc(Cc2cc([C@@H]3O[C@H](CO)[C@@H](O)[C@H](O)[C@H]3O)c3ccccc3c2)s1` [Example 8, (2R,3S,4R,5R,6S)-2-hydroxymethyl-6-[3-(5-methylthiophen-2-ylmethyl)naphthalen-1-yl]tetrahydropyran-3,4,5-triol], for which the IC50 in series [1] turned out to be 18 nM. With `OC[C@H]1O[C@@H](c2cc(Cc3cc4ccccc4s3)cc3ccccc23)[C@H](O)[C@@H](O)[C@@H]1O` [Example 1, (2S,3R,4R,5S,6R)-2-[3-(Benzo[b]thiophen-2-ylmethyl)-naphthalen-1-yl]-6-hydroxymethyl-tetrahydropyran-3,4,5-triol], in series [1], the midpoint of inhibition, the IC50, lay at 18 nM. The half-life in series [2] was 8.21 h.
